Measurements from patent US10570129B2 (Zoetis Services LLC, priority 2015, dated 2020).

What was measured:
Haemonchus contortus L3 = assay: microbe, parasite or virus in culture; type: cell-based; details: Haemonchus contortus, 96 h, read-out: HcL3 Minimal Effective Concentration (MEC)
D. immitis microfilariae = assay: Dirofilaria immitis, microfilariae (DiMF) in vitro motility assay; type: cell-based; details: Dirofilaria immitis, 72 h, read-out: DiMF minimally effective dose (MEC)

Structure (SMILES)	minimal effective concentration (Haemonchus contortus L3)	minimal effective concentration (D. immitis microfilariae)
Cc1cc2c3c(n(C(=O)NCc4ccnc(Cl)c4)c2cc1C#N)CCN(C/C=C/c1ccc(Cl)cc1)C3 [Example 176, (E)-2-(3-(4-chlorophenyl)allyl)-N-((2-chloropyridin-4-yl)methyl)-7-cyano-8-methyl-1,2,3,4-tetrahydro-5H-pyrido[4,3-b]indole-5-carboxamide]	0.2 µM	3.3 µM
N#Cc1cc2c3c(n(C(=O)NCc4ccnc(Cl)c4)c2cc1Cl)CCN(C/C=C/c1ccc(Cl)cc1)C3 [Example 177, (E)-7-chloro-2-(3-(4-chlorophenyl)allyl)-N-((2-chloropyridin-4-yl)methyl)-8-cyano-1,2,3,4-tetrahydro-5H-pyrido[4,3-b]indole-5-carboxamide]	0.3 µM	5.7 µM
N#Cc1cc2c3c(n(C(=O)NCc4ccnc(Cl)c4)c2cc1F)CCN(C/C=C/c1ccc(Cl)cc1)C3 [Example 178, (E)-2-(3-(4-chlorophenyl)allyl)-N-((2-chloropyridin-4-yl)methyl)-8-cyano-7-fluoro-1,2,3,4-tetrahydro-5H-pyrido[4,3-b]indole-5-carboxamide]	0.3 µM	> 100 µM
O=C(NCc1ccnc(Cl)c1)n1c2c(c3cc(Br)ccc31)CN(C/C=C/c1ccc(Cl)c(F)c1)CC2 [Example 179, (E)-8-bromo-2-(3-(4-chloro-3-fluorophenyl)allyl)-N-((2-chloropyridin-4-yl)methyl)-1,2,3,4-tetrahydro-5H-pyrido[4,3-b]indole-5-carboxamide]	0.5 µM	75.8 µM
N#Cc1ccc(/C=C/CN2CCc3c(c4cc(Br)ccc4n3C(=O)NCc3ccnc(Cl)c3)C2)cc1F [Example 180, (E)-8-bromo-N-((2-chloropyridin-4-yl)methyl)-2-(3-(4-cyano-3-fluorophenyl)allyl)-1,2,3,4-tetrahydro-5H-pyrido[4,3-b]indole-5-carboxamide]	0.5 µM	> 100 µM
O=C(NCc1ccnc(Cl)c1)n1c2c(c3cc(Br)ccc31)CN(C/C=C/c1ccc(F)cc1F)CC2 [Example 181, (E)-8-bromo-N-((2-chloropyridin-4-yl)methyl)-2-(3-(2,4-difluorophenyl)allyl)-1,2,3,4-tetrahydro-5H-pyrido[4,3-b]indole-5-carboxamide]	0.2 µM	32.3 µM
O=C(NCc1ccnc(Cl)c1)n1c2c(c3cc(Br)ccc31)CN(C/C=C/c1ccc(F)c(Cl)c1)CC2 [Example 182, (E)-8-bromo-2-(3-(3-chloro-4-fluorophenyl)allyl)-N-((2-chloropyridin-4-yl)methyl)-1,2,3,4-tetrahydro-5H-pyrido[4,3-b]indole-5-carboxamide]	1 µM	> 100 µM
O=C(NCc1ccnc(Cl)c1)n1c2c(c3cc(Br)ccc31)CN(C/C=C/c1ccc(F)c(F)c1)CC2 [Example 183, (E)-8-bromo-N-((2-chloropyridin-4-yl)methyl)-2-(3-(3,4-difluorophenyl)allyl)-1,2,3,4-tetrahydro-5H-pyrido[4,3-b]indole-5-carboxamide]	0.5 µM	18.2 µM
O=C(NCc1ccnc(Cl)c1)n1c2c(c3cc(Br)ccc31)CN(C/C=C/c1ccc(Cl)c(Cl)c1)CC2 [Example 186, (E)-8-bromo-N-((2-chloropyridin-4-yl)methyl)-2-(3-(3,4-dichlorophenyl)allyl)-1,2,3,4-tetrahydro-5H-pyrido[4,3-b]indole-5-carboxamide]	1 µM	> 100 µM
O=C(NCc1ccnc(Cl)c1)n1c2c(c3cc(Br)ccc31)CN(C/C=C/c1ccc(OC(F)(F)F)cc1)CC2 [Example 187, (E)-8-bromo-N-((2-chloropyridin-4-yl)methyl)-2-(3-(4-(trifluoromethoxy)phenyl)allyl)-1,2,3,4-tetrahydro-5H-pyrido[4,3-b]indole-5-carboxamide]	1.3 µM	> 100 µM
O=C(NCc1ccnc(F)c1)n1c2c(c3cc(Br)ccc31)CN(C/C=C/c1ccc(Cl)c(F)c1)CC2 [Example 188, (E)-8-bromo-2-(3-(4-chloro-3-fluorophenyl)allyl)-N-((2-fluoropyridin-4-yl)methyl)-1,2,3,4-tetrahydro-5H-pyrido[4,3-b]indole-5-carboxamide]	0.3 µM	3.3 µM
N#Cc1ccc(/C=C/CN2CCc3c(c4cc(Br)ccc4n3C(=O)NCc3ccnc(F)c3)C2)cc1F [Example 189, (E)-8-bromo-2-(3-(4-cyano-3-fluorophenyl)allyl)-N-((2-fluoropyridin-4-yl)methyl)-1,2,3,4-tetrahydro-5H-pyrido[4,3-b]indole-5-carboxamide]	0.3 µM	10.4 µM
O=C(NCc1ccnc(F)c1)n1c2c(c3cc(Br)ccc31)CN(C/C=C/c1ccc(F)c(Cl)c1)CC2 [Example 190, (E)-8-bromo-2-(3-(3-chloro-4-fluorophenyl)allyl)-N-((2-fluoropyridin-4-yl)methyl)-1,2,3,4-tetrahydro-5H-pyrido[4,3-b]indole-5-carboxamide]	1 µM	5.7 µM
O=C(NCc1ccnc(F)c1)n1c2c(c3cc(Br)ccc31)CN(C/C=C/c1ccc(F)c(F)c1)CC2 [Example 191, (E)-8-bromo-2-(3-(3,4-difluorophenyl)allyl)-N-((2-fluoropyridin-4-yl)methyl)-1,2,3,4-tetrahydro-5H-pyrido[4,3-b]indole-5-carboxamide]	0.3 µM	10 µM
O=C(NCc1ccnc(F)c1)n1c2c(c3cc(Br)ccc31)CN(C/C=C/c1ccc(Cl)cc1)CC2 [Example 192, (E)-8-bromo-2-(3-(4-chlorophenyl)allyl)-N-((2-fluoropyridin-4-yl)methyl)-1,2,3,4-tetrahydro-5H-pyrido[4,3-b]indole-5-carboxamide]	0.7 µM	11.5 µM
O=C(NCc1cnc(Cl)s1)n1c2c(c3cc(Br)ccc31)CN(C/C=C/c1ccc(Cl)cc1)CC2 [Example 193, (E)-8-bromo-2-(3-(4-chlorophenyl)allyl)-N-((2-chlorothiazol-5-yl)methyl)-1,2,3,4-tetrahydro-5H-pyrido[4,3-b]indole-5-carboxamide]	1 µM	75.8 µM
Cc1cc2c(cc1Br)c1c(n2C(=O)NCc2ccnc(Cl)c2)CCN(C/C=C/c2ccc(Cl)cc2)C1 [Example 194, (E)-8-bromo-2-(3-(4-chlorophenyl)allyl)-N-((2-chloropyridin-4-yl)methyl)-7-methyl-1,2,3,4-tetrahydro-5H-pyrido[4,3-b]indole-5-carboxamide]	0.4 µM	5.7 µM
COc1cc2c(cc1Br)c1c(n2C(=O)NCc2ccnc(Cl)c2)CCN(C/C=C/c2ccc(Cl)cc2)C1 [Example 195, (E)-8-bromo-2-(3-(4-chlorophenyl)allyl)-N-((2-chloropyridin-4-yl)methyl)-7-methoxy-1,2,3,4-tetrahydro-5H-pyrido[4,3-b]indole-5-carboxamide]	0.5 µM	5.7 µM
O=C(NCc1ccnc(Cl)c1)n1c2c(c3cc(Br)c(Cl)cc31)CN(C/C=C/c1ccc(Cl)cc1)CC2 [Example 196, (E)-8-bromo-7-chloro-2-(3-(4-chlorophenyl)allyl)-N-((2-chloropyridin-4-yl)methyl)-1,2,3,4-tetrahydro-5H-pyrido[4,3-b]indole-5-carboxamide]	0.3 µM	5.7 µM
O=C(NCc1ccnc(Cl)c1)n1c2c(c3cc(Br)c(F)cc31)CN(C/C=C/c1ccc(Cl)cc1)CC2 [Example 197, (E)-8-bromo-2-(3-(4-chlorophenyl)allyl)-N-((2-chloropyridin-4-yl)methyl)-7-fluoro-1,2,3,4-tetrahydro-5H-pyrido[4,3-b]indole-5-carboxamide]	0.4 µM	4.4 µM
O=C(NCc1ccnc(Cl)c1)n1c2c(c3cc(Br)c(Br)cc31)CN(C/C=C/c1ccc(Cl)cc1)CC2 [Example 198, (E)-7,8-dibromo-2-(3-(4-chlorophenyl)allyl)-N-((2-chloropyridin-4-yl)methyl)-1,2,3,4-tetrahydro-5H-pyrido[4,3-b]indole-5-carboxamide]	1 µM	5.7 µM
O=C(NCc1ccnc(Cl)c1)n1c2c(c3ccc(Br)cc31)CN(C/C=C/c1ccc(F)cc1F)CC2 [Example 199, (E)-7-bromo-N-((2-chloropyridin-4-yl)methyl)-2-(3-(2,4-difluorophenyl)allyl)-1,2,3,4-tetrahydro-5H-pyrido[4,3-b]indole-5-carboxamide]	5.7 µM	24.5 µM
O=C(NCc1ccnc(Cl)c1)n1c2c(c3ccc(Cl)cc31)CN(C/C=C/c1ccc(Cl)c(F)c1)CC2 [Example 205, (E)-7-chloro-2-(3-(4-chloro-3-fluorophenyl)allyl)-N-((2-chloropyridin-4-yl)methyl)-1,2,3,4-tetrahydro-5H-pyrido[4,3-b]indole-5-carboxamide]	1 µM	18.2 µM
O=C(NCc1ccnc(Cl)c1)n1c2c(c3ccc(Cl)cc31)CN(C/C=C/c1ccc(C(F)(F)F)cn1)CC2 [Example 206, (E)-7-chloro-N-((2-chloropyridin-4-yl)methyl)-2-(3-(5-(trifluoromethyl)-pyridin-2-yl)allyl)-1,2,3,4-tetrahydro-5H-pyrido[4,3-b]indole-5-carboxamide]	0.2 µM	3.3 µM
O=C(NCc1ccnc(Cl)c1)n1c2c(c3c(Cl)cccc31)CN(C/C=C/c1ccc(C(F)(F)F)cn1)CC2 [Example 207, (E)-9-chloro-N-((2-chloropyridin-4-yl)methyl)-2-(3-(5-(trifluoromethyl)-pyridin-2-yl)allyl)-1,2,3,4-tetrahydro-5H-pyrido[4,3-b]indole-5-carboxamide]	0.3 µM	10 µM
